According to ChEMBL document CHEMBL5113477, “Membrane acting Povarov-Doebner derived compounds potently disperse preformed multidrug resistant Gram-positive bacterial biofilms” (Eur J Med Chem, 2022):
Values after ≈ are worked out from the molar mass of the structure shown. One block for each compound: values may come before it.

Experiments:
Assay type in all cases: functional
[1] = test system: Staphylococcus aureus; assay: Antibacterial activity against Staphylococcus aureus ATCC 25923 assessed as reduction in visible bacterial growth incubated for 18 to 20 hrs by CLSI based broth microdilution analysis; conditions: time 18-20 hrs
[2] = test system: Enterococcus faecium; assay: (§1) Synergistic antibiofilm activity against vancomycin-resistant Enterococcus faecium ATCC 700221 in TSB broth assessed as dispersal of glucose-induced biofilm by measuring Nitroxoline MBEC preincubated with glucose for 48 hrs followed by compound addition and measured after 24 hrs by crystal violet staining based checkerboard assay
[3] = test system: Enterococcus faecium; assay: Antibiofilm activity against vancomycin-resistant Enterococcus faecium ATCC 700221 in TSB broth assessed as dispersal of glucose-induced biofilm preincubated with glucose for 48 hrs followed by compound addition and measured after 24 hrs by crystal violet staining based analysis
[4] = test system: Staphylococcus aureus; assay: (§2) Antibiofilm activity against methicillin-resistant Staphylococcus aureus USA 300 in TSB broth assessed as dispersal of glucose-induced biofilm preincubated with glucose for 48 hrs followed by compound addition and measured after 24 hrs by crystal violet staining based analysis
[5] = test system: Staphylococcus aureus; assay: as §2, with “Synergistic antibiofilm” for “Antibiofilm”, “biofilm by measuring Nitroxoline MBEC” for “biofilm”, “checkerboard assay” for “analysis”
[6] = test system: Staphylococcus aureus; assay: as §2, with “Synergistic antibiofilm” for “Antibiofilm”, “biofilm by measuring Bithionol MBEC” for “biofilm”, “checkerboard assay” for “analysis”
[7] = test system: Staphylococcus aureus; assay: (§3) Synergistic antibiofilm activity against methicillin-resistant Staphylococcus aureus USA 300 in TSB broth assessed as dispersal of glucose-induced biofilm preincubated with glucose for 48 hrs followed by compound addition and further incubated for 24 hrs in presence of Nitroxoline by crystal violet staining based checkerboard assay
[8] = test system: Staphylococcus aureus; assay: as §3, with “Bithionol” for “Nitroxoline”
[9] = test system: Staphylococcus aureus; assay: as §3, with “glucose-induced biofilm by measuring fractional inhibitory concentration index preincubated with” for “glucose-induced biofilm preincubated with”
[10] = test system: Staphylococcus aureus; assay: (§4) Synergistic antibiofilm activity against methicillin-resistant Staphylococcus aureus USA 300 in TSB broth assessed as dispersal of glucose-induced biofilm by measuring fractional inhibitory concentration index preincubated with glucose for 48 hrs followed by compound addition and further incubated for 24 hrs in presence of Bithionol by crystal violet staining based checkerboard assay
[11] = test system: Enterococcus faecalis; assay: Antibiofilm activity against vancomycin-resistant Enterococcus faecalis ATCC 51575 in TSB broth assessed as dispersal of glucose-induced biofilm preincubated with glucose for 48 hrs followed by compound addition and measured after 24 hrs by crystal violet staining based analysis
[12] = test system: Enterococcus faecalis; assay: as §1, with “faecalis” for “faecium”, “51575” for “700221”
[13] = test system: Enterococcus faecalis; assay: as §1, with “faecalis” for “faecium”, “51575” for “700221”, “Bithionol” for “Nitroxoline”
[14] = test system: Enterococcus faecalis; assay: as §3, with “vancomycin-resistant Enterococcus faecalis ATCC 51575” for “methicillin-resistant Staphylococcus aureus USA 300”
[15] = test system: Enterococcus faecalis; assay: as §3, with “vancomycin-resistant Enterococcus faecalis ATCC 51575” for “methicillin-resistant Staphylococcus aureus USA 300”, “Bithionol” for “Nitroxoline”
[16] = test system: Enterococcus faecalis; assay: as §4, with “vancomycin-resistant Enterococcus faecalis ATCC 51575” for “methicillin-resistant Staphylococcus aureus USA 300”, “Nitroxoline” for “Bithionol”
[17] = test system: Enterococcus faecalis; assay: as §4, with “vancomycin-resistant Enterococcus faecalis ATCC 51575” for “methicillin-resistant Staphylococcus aureus USA 300”
[18] = test system: Enterococcus faecium; assay: as §1, with “[…]” for “Nitroxoline”
[19] = test system: Enterococcus faecium; assay: (§5) Synergistic antibiofilm activity against vancomycin-resistant Enterococcus faecium ATCC 700221 in TSB broth assessed as dispersal of glucose-induced biofilm preincubated with glucose for 48 hrs followed by compound addition and further incubated for 24 hrs in presence of Nitroxoline by crystal violet staining based checkerboard assay
[20] = test system: Enterococcus faecium; assay: as §5, with “Bithionol” for “Nitroxoline”
[21] = test system: Enterococcus faecium; assay: as §5, with “glucose-induced biofilm by measuring fractional inhibitory concentration index preincubated with” for “glucose-induced biofilm preincubated with”
[22] = test system: Enterococcus faecium; assay: Synergistic antibiofilm activity against vancomycin-resistant Enterococcus faecium ATCC 700221 in TSB broth assessed as dispersal of glucose-induced biofilm by measuring fractional inhibitory concentration index preincubated with glucose for 48 hrs followed by compound addition and further incubated for 24 hrs in presence of Bithionol by crystal violet staining based checkerboard assay
[23] = test system: Staphylococcus aureus; assay: Induction of drug resistance in methicillin-resistant Staphylococcus aureus USA 300 assessed as fold increase in MIC treated daily for 30 days; conditions: time 30.0 day
[24] = test system: Staphylococcus aureus; assay: Induction of drug resistance in methicillin-resistant Staphylococcus aureus ATCC 33592 assessed as fold increase in MIC treated daily for 30 days; conditions: time 30.0 day

Structure (SMILES): Oc1ccc([C@@H]2Nc3c(ccc(Cl)c3Cl)[C@H]3[C@@H]4CC[C@@H](C4)[C@H]32)cc1
- MIC [1]: 4 µg/mL (≈ 11.1 µM)

Structure (SMILES): FC(F)(F)c1n[nH]cc1[C@@H]1Nc2ccc(S(F)(F)(F)(F)F)cc2[C@H]2[C@@H]3CC[C@@H](C3)[C@H]21
- MBEC [2]: 2 µg/mL
- MBEC [3]: 32 µg/mL
- MBEC [4]: 32 µg/mL
- MBEC [5]: 2 µg/mL
- MBEC [6]: 2 µg/mL
- MBEC [7]: 8 µg/mL
- MBEC [8]: 1 µg/mL
- fractional inhibitory concentration index (FICI) [9]: 0.38
- fractional inhibitory concentration index (FICI) [10]: 0.28
- MBEC [11]: 32 µg/mL
- MBEC [12]: 2 µg/mL
- MBEC [13]: 2 µg/mL
- MBEC [14]: 1 µg/mL
- MBEC [15]: 1 µg/mL
- fractional inhibitory concentration index (FICI) [16]: 0.25
- fractional inhibitory concentration index (FICI) [17]: 0.28
- MBEC [18]: 4 µg/mL
- MBEC [19]: 1 µg/mL
- MBEC [20]: 1 µg/mL
- fractional inhibitory concentration index (FICI) [21]: 0.16
- fractional inhibitory concentration index (FICI) [22]: 0.28

Structure (SMILES): C/C(=C\C(=O)OCCCCCCCCC(=O)O)C[C@@H]1OC[C@H](C[C@@H]2O[C@H]2[C@@H](C)[C@H](C)O)[C@@H](O)[C@H]1O
- fold change (FC) [23]: > 60
- fold change (FC) [24]: > 250

Structure (SMILES): O=[N+]([O-])c1ccc(O)c2ncccc12 [NITROXOLINE]
- MBEC [3]: 16 µg/mL
- MBEC [4]: 16 µg/mL
- MBEC [11]: 16 µg/mL

Structure (SMILES): Oc1ccc(-c2nc3ccc(S(F)(F)(F)(F)F)cc3c3c2[C@H]2CC[C@@H]3C2)cc1
- MIC [1]: > 16 µg/mL

Next, values leading:

- MIC [1]: 4 µg/mL (≈ 12.4 µM)
Structure (SMILES): COc1ccc2c(c1)[C@H]1[C@@H]3CC[C@@H](C3)[C@H]1[C@H](c1ccc(O)cc1)N2

- MIC [1]: 4 µg/mL (≈ 9.58 µM)
Structure (SMILES): Oc1ccccc1[C@@H]1Nc2ccc(S(F)(F)(F)(F)F)cc2[C@H]2[C@@H]3CC[C@@H](C3)[C@H]21

- MIC [1]: > 16 µg/mL
Structure (SMILES): Oc1ccc([C@@H]2Nc3c(SC(F)(F)F)cccc3[C@H]3[C@@H]4CC[C@@H](C4)[C@H]32)cc1

- MIC [1]: 4 µg/mL (≈ 10.2 µM)
Structure (SMILES): Oc1cccc([C@@H]2Nc3ccc(SC(F)(F)F)cc3[C@H]3[C@@H]4CC[C@@H](C4)[C@H]32)c1

- MIC [1]: 4 µg/mL (≈ 12.2 µM)
Structure (SMILES): Oc1ccc([C@@H]2Nc3cc(F)cc(F)c3[C@H]3[C@@H]4CC[C@@H](C4)[C@H]32)cc1

- MIC [1]: > 16 µg/mL
Structure (SMILES): Oc1ccc([C@@H]2Nc3ccc(OC(F)(F)F)cc3[C@H]3[C@@H]4CC[C@@H](C4)[C@H]32)cc1
